“And” between values parts separate entries of the source, which are not always exact repeats. Equal values may be shown once.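 Five compound concentrations were applied to cells in 96-well plates for 48 hours; endpoints were derived by simple linear interpolation of the resulting dose-response curve. GI50 is the concentration that inhibits growth by half. The concentration for full growth arrest is given as TGI.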

Here are results for eleven compounds from PubChem BioAssay (NCI).

Some test systems named below: KM12 colon; NCI-H460 lung; HCT-116 colon; SR leukemia; HT29 colon; NCI/ADR-RES ovarian; SF-295 CNS; A498 renal; ACHN renal; 786-0 renal.
Holding throughout (experiment): growth of human tumour cells (NCI), 48 h

Turning to `CC1CC(C)C2=NOS3=C2C1=NO3` (stereo not drawn), the TGI with KM12 colon, in the assay on NCI-H460 lung, with HCT-116 colon, in the assay on SR leukemia, in the assay with HT29 colon and in the assay with NCI/ADR-RES ovarian was more than 100 µM each time. Besides, the TGI with SF-295 CNS was more than 100 µM; with A498 renal, 94.8 µM; with ACHN renal, more than 100 µM; in the assay with 786-0 renal, more than 100 µM.
`O=c1c(-c2ccc(O)cc2)coc2cc(OC3OC(CO)C(O)C(O)C3O)cc(O)c12` (stereo not drawn): the TGI in the assay on KM12 colon is more than 100 µM; in the assay with NCI-H460 lung it was more than 100 µM; in the assay with HCT-116 colon, more than 100 µM; with SR leukemia, more than 100 µM; with HT29 colon it was more than 100 µM; with NCI/ADR-RES ovarian it was more than 10 µM. Besides, the TGI in the assay on SF-295 CNS, with A498 renal, with ACHN renal and in the assay on 786-0 renal was more than 100 µM each time. For the same compound, the GI50 in the assay on NCI-H460 lung, with SR leukemia, in the assay with ACHN renal and in the assay with 786-0 renal was more than 10 µM in each case.
On to `O=C1C(=O)N(c2cccc(C(F)(F)F)c2)C(=O)C(=O)C1c1nc2ccccc2s1`, for which the TGI in the assay on KM12 colon was more than 100 µM; in the assay on NCI-H460 lung it was more than 100 µM; with HCT-116 colon, more than 100 µM; with SR leukemia it was 83.6 µM; in the assay on HT29 colon, more than 100 µM; in the assay with NCI/ADR-RES ovarian it was more than 100 µM. The TGI in the assay with SF-295 CNS, in the assay with A498 renal, in the assay with ACHN renal and with 786-0 renal was more than 100 µM throughout.
As to `C1CCN2CC3CCCN4CCCC(C2C1)C34` (stereo not drawn), the TGI in the assay on KM12 colon, in the assay on NCI-H460 lung, in the assay with HCT-116 colon, in the assay on SR leukemia, with HT29 colon and in the assay on NCI/ADR-RES ovarian was more than 100 µM in each case. The TGI in the assay with SF-295 CNS, with A498 renal, in the assay with ACHN renal and with 786-0 renal was more than 100 µM throughout.
As to `COc1ccc2c(c1)C(=O)c1c-2n(CCCN)c(=O)c2cc(OC)c(OC)cc12`, the GI50 with KM12 colon was 0.169 µM; in the assay with NCI-H460 lung, less than 0.01 µM; in the assay on HCT-116 colon, 0.0287 µM; in the assay with HT29 colon it was 0.0684 µM; in the assay on NCI/ADR-RES ovarian, 0.405 µM; in the assay on SF-295 CNS, less than 0.01 µM. For the same compound, the GI50 is 1.89 µM with A498 renal, 0.0397 µM in the assay with ACHN renal and 0.146 µM in the assay on 786-0 renal. The TGI was 0.627 µM with KM12 colon; more than 100 µM in the assay on NCI-H460 lung; 0.181 µM with HCT-116 colon; 0.214 µM with HT29 colon; 5.4 µM with NCI/ADR-RES ovarian; 1.04 µM with SF-295 CNS. Moreover, the TGI came out at 5.59 µM in the assay with A498 renal, 1.14 µM with ACHN renal and 0.445 µM in the assay with 786-0 renal.
Turning to `NC(=Nc1nc(-c2ccccn2)cc2ccccc12)c1ccccn1`, the GI50 was 0.336 µM in the assay with KM12 colon; 0.099 µM with NCI-H460 lung; 0.00151 µM in the assay with HCT-116 colon; 0.0619 µM and < 0.0145 µM in the assay on SR leukemia; 0.0708 µM with HT29 colon; 0.0434 µM in the assay on NCI/ADR-RES ovarian. For the same compound, the GI50 in the assay on A498 renal is 0.0283 µM; in the assay with ACHN renal it was 0.0115 µM; with 786-0 renal, 0.0177 µM. Further, the TGI with KM12 colon is more than 56.7 µM; in the assay on HCT-116 colon it was more than 100 µM; in the assay with SR leukemia it was 0.243 µM and 0.722 µM; in the assay on HT29 colon, more than 100 µM.
`Nc1nc(N)c(N=Nc2ccc(C(=O)O)c(O)c2)c(N)n1`: the TGI in the assay with KM12 colon, in the assay with NCI-H460 lung, in the assay on HCT-116 colon, in the assay with SR leukemia, with HT29 colon and in the assay with NCI/ADR-RES ovarian was more than 100 µM in each case. In addition, the TGI in the assay on SF-295 CNS, in the assay with A498 renal, in the assay on ACHN renal and with 786-0 renal was more than 100 µM each time.
Regarding `O=S(=O)(Nc1ccc2ccccc2c1)c1ccc(-c2cnc(C3CC3)o2)cc1`, the GI50 in the assay with KM12 colon is 0.624 µM; in the assay with NCI-H460 lung it was 0.56 µM; in the assay with HCT-116 colon it was 0.746 µM; with SR leukemia, 0.377 µM; in the assay with HT29 colon, 0.429 µM; with NCI/ADR-RES ovarian it was 0.713 µM. Also, the GI50 in the assay on SF-295 CNS was 0.452 µM; in the assay on A498 renal, 0.462 µM; in the assay with ACHN renal, 2.61 µM; in the assay on 786-0 renal, 3.1 µM. The TGI with KM12 colon was 14.7 µM; in the assay with NCI-H460 lung, 10.9 µM; in the assay with HCT-116 colon it was 12.7 µM; in the assay with SR leukemia, more than 100 µM; in the assay with HT29 colon, 17.6 µM; in the assay with NCI/ADR-RES ovarian, 5.81 µM. In addition, the TGI turned out to be 5.46 µM in the assay with SF-295 CNS, 5.28 µM with A498 renal, 42.8 µM with ACHN renal and 18.7 µM with 786-0 renal.
For the compound `COc1ccc(CNc2cnc3cc(N)cc(N)c3n2)cc1`, the GI50 in the assay with KM12 colon was 23.5 µM; with NCI-H460 lung, 33.8 µM; in the assay on HCT-116 colon, 19.4 µM; in the assay on HT29 colon it was 42 µM; in the assay with NCI/ADR-RES ovarian, 25.5 µM; in the assay with SF-295 CNS it was 21.9 µM. Besides, the GI50 in the assay with ACHN renal and with 786-0 renal was 17.2 µM in each case. Further, the TGI in the assay on KM12 colon is 67.6 µM; in the assay with NCI-H460 lung, more than 100 µM; in the assay on HCT-116 colon, 40.8 µM; in the assay on HT29 colon, more than 100 µM; with NCI/ADR-RES ovarian, 76.2 µM; in the assay on SF-295 CNS, 55.9 µM. Moreover, the TGI with ACHN renal amounted to 32.2 µM; in the assay on 786-0 renal, 31.6 µM.
In the case of `C[C@@H]1CC[C@@H]2[C@@H](C)C[C@H]3[C@@H]4C(C)(C)OC(=O)[C@]4(C)C(=O)[C@@]23C1=O`, the TGI in the assay on KM12 colon, with NCI-H460 lung, with HCT-116 colon, with HT29 colon, in the assay on NCI/ADR-RES ovarian and in the assay with SF-295 CNS was more than 100 µM each time. In addition, the TGI in the assay with ACHN renal and in the assay on 786-0 renal was more than 100 µM throughout.
`CC(O)CN1c2ccccc2Sc2ccc(Cl)cc21` (stereo not drawn): the TGI in the assay on KM12 colon, in the assay on NCI-H460 lung, in the assay with HCT-116 colon, in the assay with HT29 colon, in the assay on NCI/ADR-RES ovarian and in the assay on SF-295 CNS was more than 10 µM throughout. For the same compound, the TGI with A498 renal, with ACHN renal and with 786-0 renal was more than 10 µM each time.
